Test [1] deals with SJSA-1 osteosarcoma cell line. The test can be described thus: MTT cell viability assay. The format is cell-based. The note with it: 72 h incubation, average of 2-5 experiments. Put shortly:
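Cells exposed to serial compound dilutions for 72 h, then MTT (0.5 mg/ml final) added for 4 h; formazan dissolved in DMSO. IC50 from dose-response curves, 2-5 independent repeats.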
(Formazan colour is commonly taken as a measure of viable cells.)

In test [2] the target is T1, p53-Mdm2 interaction (N-terminal domain of Mdm2 protein, amino acids 1-111) (Homo sapiens, UniProt Q00987).
T1 construct: N-terminal domain of Mdm2 protein (amino acids 1-111)
T1 sequence (Q00987 1-111): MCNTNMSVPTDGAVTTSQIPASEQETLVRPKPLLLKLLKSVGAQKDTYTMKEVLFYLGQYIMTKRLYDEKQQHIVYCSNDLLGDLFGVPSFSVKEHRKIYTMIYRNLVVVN
As to the kind of experiment: Fluorescence polarization (FP) binding assay of p53-Mdm2 interaction. Particulars: for Ki: FP assay, 130 nM Mdm2, FAM-labelled p53 peptide, Ki transformed from IC50 using Kenakin equation. Put shortly: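 N-terminal Mdm2 (aa 1-111) at 130 nM preincubated 15 min with compound (5% DMSO) in PBS, 0.1% CHAPS, 5 mM DTT, then […] FAM-labelled p53 peptide added. Polarization read after 90 min at room temperature (ex 470/em 520 nm). IC50 converted to Ki by Kenakin equation.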
Background: Fluorescence polarisation rises when a labelled molecule tumbles more slowly, as on binding a larger partner.

`COC(=O)c1ccc(OC)c(-n2nc3c(c2C(C)C)C2(C(=O)Nc4cc(Cl)ccc42)N(c2cc(Cl)ccc2O)C3=O)c1` (stereo not drawn) [Compound 79, methyl 3-[6-chloro-5′-(5-chloro-2-hydroxyphenyl)-2,6′-dioxo-3′-(propan-2-yl)-1,2,5′,6′-tetrahydro-2′H-spiro[indole-3,4′-pyrrolo[3,4-c]pyrazole]-2′-yl]-4-methoxybenzoate]: in test [1] (Homo sapiens, SJSA-1, 72 h), the IC50 (in general, the concentration that inhibits the measured activity by half) was found to be 1.02 µM. The Ki (in general, the dissociation constant of the complex between target and ligand, obtained from inhibition or displacement) in test [2] was determined as 5.7 nM.

For `Cc1ccc(Cl)cc1N1C(=O)c2n[nH]c(C(C)C)c2C12C(=O)Nc1cc(Cl)ccc12` (stereo not drawn) [Compound 23, 6-chloro-5′-(5-chloro-2-methylphenyl)-3′-(propan-2-yl)-1,2,5′,6′-tetrahydro-2′H-spiro[indole-3,4′-pyrrolo[3,4-c]pyrazole]-2,6′-dione], in test [1] (Homo sapiens, SJSA-1, 72 h), the midpoint of inhibition, the IC50, lay at 10.2 µM. In test [2], this molecule showed an inhibitory constant (Ki) of 20 nM.

As for `COc1ccccc1-n1nc2c(c1C1(C)CC1)C1(C(=O)Nc3cc(Cl)ccc31)N(c1cccc(Cl)c1)C2=O` (stereo not drawn) [Compound 26, 6-chloro-5′-(3-chlorophenyl)-2′-(2-methoxyphenyl)-3′-(1-methylcyclopropyl)-1,2,5′,6′-tetrahydro-2′H-spiro[indole-3,4′-pyrrolo[3,4-c]pyrazole]-2,6′-dione], the IC50 in test [1] (Homo sapiens, SJSA-1, 72 h) turned out to be 4.91 µM. In addition, affinity in test [2] was put at a Ki of 23 nM.

In test [1] (Homo sapiens, SJSA-1, 72 h), `CC1(c2[nH]nc3c2C2(C(=O)Nc4cc(Cl)ccc42)N(c2cccc(Cl)c2)C3=O)CC1` (stereo not drawn) [Compound 19, 6-chloro-5′-(3-chlorophenyl)-3′-(1-methylcyclopropyl)-1,2,5′,6′-tetrahydro-2′H-spiro[indole-3,4′-pyrrolo[3,4-c]pyrazole]-2,6′-dione] registered a half-inhibitory concentration (IC50) of 22.3 µM. The molecule further registered an inhibitory constant (Ki) in test [2] of 64 nM.

The molecule `COc1ccc(Cl)cc1N1C(=O)C(O)=C(c2ccccc2)C12C(=O)Nc1cc(Cl)ccc12` (stereo not drawn) [Compound 46, 6-chloro-1′-(5-chloro-2-methoxyphenyl)-4′-hydroxy-3′-phenyl-1,1′,2,5′-tetrahydrospiro[indole-3,2′-pyrrole]-2,5′-dione] returned a concentration for half-maximal inhibition (IC50) in test [1] (Homo sapiens, SJSA-1, 72 h) of 32.3 µM. In test [2], this molecule yielded an inhibitory constant (Ki) of 96 nM.

`COc1ccc(C(=O)NCCO)cc1-n1cc2c(c1C(C)C)C1(C(=O)Nc3cc(Cl)ccc31)N(c1cc(Cl)ccc1C)C2=O` (stereo not drawn) [Compound 100, 3-[6-chloro-2′-(5-chloro-2-methylphenyl)-2,3′-dioxo-6′-(propan-2-yl)-1,2,3′,5′-tetrahydro-2′H-spiro[indole-3,1′-pyrrolo [3,4-c]pyrrole]-5′-yl]-N-(2-hydroxyethyl)-4-methoxybenzamide] registered an IC50 in test [1] (Homo sapiens, SJSA-1, 72 h) of 1.21 µM. Also, the inhibitory constant (Ki) in test [2] came to 3.5 nM.

Turning to `CSc1ccccc1-n1nc2c(c1C(C)C)C1(C(=O)Nc3cc(Cl)ccc31)N(c1cc(Cl)ccc1C)C2=O` (stereo not drawn) [Compound 77, 6-chloro-5′-(5-chloro-2-methylphenyl)-2′-[2-(methylsulfanyl)phenyl]-3′-(propan-2-yl)-1,2,5′,6′-tetrahydro-2′H-spiro[indole-3,4′-pyrrolo[3,4-c]pyrazole]-2,6′-dione], the IC50 in test [1] (Homo sapiens, SJSA-1, 72 h) amounted to 8.57 µM. In test [2], this molecule had a Ki of 30 nM.

Turning to `Cc1ccc(Cl)cc1N1C(=O)c2nn(-c3ccccc3C)c(C(C)C)c2C12C(=O)Nc1cc(Cl)ccc12` (stereo not drawn) [Compound 68, 6-chloro-5′-(5-chloro-2-methylphenyl)-2′-(2-methylphenyl)-3′-(propan-2-yl)-1,2,5′,6′-tetrahydro-2′H-spiro[indole-3,4′-pyrrolo[3,4-c]pyrazole]-2,6′-dione], half-maximal inhibition in test [1] (Homo sapiens, SJSA-1, 72 h) (IC50) required 6.35 µM. In test [2], the affinity corresponds to a Ki of 46 nM.

In turn, `COc1ccccc1-n1nc2c(c1C(C)C)C1(C(=O)Nc3cc(Cl)ccc31)N(c1cncc(Cl)c1)C2=O` (stereo not drawn) [Compound 72, 6-chloro-5′-(5-chloropyridin-3-yl)-2′-(2-methoxyphenyl)-3′-(propan-2-yl)-1,2,5′,6′-tetrahydro-2′H-spiro[indole-3,4′-pyrrolo [3,4-c]pyrazole]-2,6′-dione] gave an IC50 in test [1] (Homo sapiens, SJSA-1, 72 h) of 0.89 µM. Also, in test [2], the Ki was found to be 5.6 nM.

In the case of `COc1ccccc1-n1nc2c(c1C(C)C)[C@@]1(C(=O)Nc3cc(Cl)ccc31)N(c1cncc(Cl)c1)C2=O` [Compound 81, (3S)-6-chloro-5′-(5-chloropyridin-3-yl)-2′-(2-methoxyphenyl)-3′-(propan-2-yl)-1,2,5′,6′-tetrahydro-2′H-spiro-[indole-3,4′-pyrrolo[3,4-c]pyrazole]-2,6′-dione], in test [1], the 50% inhibitory concentration (IC50) came out at 0.8 µM. For the same molecule, in test [2], the inhibition constant (Ki) stood at 2.2 nM. Further, the “times more potent than the corresponding S/R (racemic) mixture” value in test [2] (enantiopure S isomers vs racemic Compounds 71, 93 and 72, respectively) is listed as “about 2 times”.

As for `COc1ccccc1-n1nc2c(c1C(C)C)[C@@]1(C(=O)Nc3cc(Cl)ccc31)N(c1cncc(Cl)c1)C2=O` [Compound 88, (3S)-6-chloro-5′-(5-chloropyridin-3-yl)-2′-(2-methoxyphenyl)-3′-(propan-2-yl)-1,2,5′,6′-tetrahydro-2′H-spiro[indole-3,4′-pyrrolo[3,4-c]pyrazole]-2,6′-dione], the IC50 in test [1] is 0.34 µM. This molecule also displayed a Ki in test [2] of 1.9 nM.

In the case of `Cc1ccc(Cl)cc1N1C(=O)c2n[nH]c(C3(C)CC3)c2C12C(=O)Nc1cc(Cl)ccc12` (stereo not drawn) [Compound 18, 6-chloro-5′-(5-chloro-2-methylphenyl)-3′-(1-methylcyclopropyl)-1,2,5′,6′-tetrahydro-2′H-spiro[indole-3,4′-pyrrolo [3,4-c]pyrazole]-2,6′-dione], inhibition in test [1] (Homo sapiens, SJSA-1, 72 h) was half-maximal at 10.8 µM (IC50). Affinity in test [2] was put at a Ki of 45 nM.

In turn, `CCN(CC)S(=O)(=O)c1ccc(OC)c(-n2cc3c(c2C(C)C)C2(C(=O)Nc4cc(Cl)ccc42)N(c2cc(Cl)ccc2C)C3=O)c1` (stereo not drawn) [Compound 98, 3-[6-chloro-2′-(5-chloro-2-methylphenyl)-2,3′-dioxo-6′-(propan-2-yl)-1,2,3′,5′-tetrahydro-2′H-spiro[indole-3,1′-pyrrolo [3,4-c]pyrrole]-5′-yl]-N,N-diethyl-4-methoxybenzene-1-sulfonamide] yielded a half-maximal inhibitory concentration (IC50) in test [1] (Homo sapiens, SJSA-1, 72 h) of 0.38 µM. In test [2], this molecule came in with a Ki of 4.6 nM.

On to `CCOC(=O)c1ccc(Cl)cc1N1C(=O)c2cn(-c3ccccc3OC)c(C(C)C)c2C12C(=O)Nc1cc(Cl)ccc12` (stereo not drawn) [Compound 106, ethyl 4-chloro-2-[6-chloro-5′-(2-methoxyphenyl)-2,3′-dioxo-6′-(propan-2-yl)-1,2,3′,5′-tetrahydro-2′H-spiro[indole-3,1′-pyrrolo[3,4-c]pyrrole]-2′-yl]benzoate], for which, in test [1] (Homo sapiens, SJSA-1, 72 h), the IC50 was determined as 0.78 µM. Besides, the affinity in test [2], expressed as Ki, was 4.2 nM.

Consider `CC(C)(C)c1[nH]nc2c1C1(C(=O)Nc3cc(Cl)ccc31)N(c1cccc(Cl)c1)C2=O` (stereo not drawn) [Compound 20, 3′-tert-butyl-6-chloro-5′-(3-chlorophenyl)-1,2,5′,6′-tetrahydro-2′H-spiro[indole-3,4′-pyrrolo[3,4-c]pyrazole]-2,6′-dione], for which the IC50 in test [1] (Homo sapiens, SJSA-1, 72 h) amounted to 21.2 µM. In test [2], this molecule displayed a Ki of 24 nM.

Consider `Cc1cccc(-n2nc3c(c2C(C)C)C2(C(=O)Nc4cc(Cl)ccc42)N(c2cc(Cl)ccc2C)C3=O)c1` (stereo not drawn) [Compound 69, 6-chloro-5′-(5-chloro-2-methylphenyl)-2′-(3-methylphenyl)-3′-(propan-2-yl)-1,2,5′,6′-tetrahydro-2′H-spiro[indole-3,4′-pyrrolo[3,4-c]pyrazole]-2,6′-dione], for which, in test [1] (Homo sapiens, SJSA-1, 72 h), the half-maximal inhibitory concentration (IC50) is 4.04 µM. In test [2], the inhibition constant Ki was found to be 67 nM.

In turn, `COc1ccccc1-n1cc2c(c1C(C)C)C1(C(=O)Nc3cc(Cl)ccc31)N(c1cc(Cl)ccc1C(=O)O)C2=O` (stereo not drawn) [Compound 105, 4-chloro-2-[6-chloro-5′-(2-methoxyphenyl)-2,3′-dioxo-6′-(propan-2-yl)-1,2,3′,5′-tetrahydro-2′H-spiro[indole-3,1′-pyrrolo[3,4-c]pyrrole]-2′-yl]benzoic acid] gave an IC50 in test [1] (Homo sapiens, SJSA-1, 72 h) of 9.98 µM. In addition, the Ki in test [2] worked out at 4.3 nM.

Molecule `COc1sccc1-n1cc2c(c1C(C)C)C1(C(=O)Nc3cc(Cl)ccc31)N(c1cc(Cl)ccc1C)C2=O` (stereo not drawn) [Compound 113, 6-chloro-2′-(5-chloro-2-methylphenyl)-5′-(2-methoxythiophen-3-yl)-6′-(propan-2-yl)-1,2,3′,5′-tetrahydro-2′H-spiro[indole-3,1′-pyrrolo[3,4-c]pyrrole]-2,3′-dione] registered an IC50 in test [1] (Homo sapiens, SJSA-1, 72 h) of 0.69 µM. The Ki in test [2] came to 3.4 nM.

`COc1ccccc1-n1nc2c(c1C(C)C)C1(C(=O)Nc3cc(Cl)ccc31)N(c1cccc(Cl)c1)C2=O` (stereo not drawn) [Compound 27, 6-chloro-5′-(3-chlorophenyl)-2′-(2-methoxyphenyl)-3′-(propan-2-yl)-1,2,5′,6′-tetrahydro-2′H-spiro[indole-3,4′-pyrrolo [3,4-c]pyrazole]-2,6′-dione] had a half-maximal inhibitory concentration (IC50) in test [1] (Homo sapiens, SJSA-1, 72 h) of 1.07 µM. In test [2], this molecule gave a Ki of 4.3 nM.

Regarding `COc1ccc(Cl)cc1N1C(=O)c2nn(-c3ccccc3OC)c(C(C)C)c2C12C(=O)Nc1cc(Cl)ccc12` (stereo not drawn) [Compound 30, 6-chloro-5′-(5-chloro-2-methoxyphenyl)-2′-(2-methoxyphenyl)-3′-(propan-2-yl)-1,2,5′,6′-tetrahydro-2′H-spiro[indole-3,4′-pyrrolo[3,4-c]pyrazole]-2,6′-dione], the concentration for half-maximal inhibition (IC50) in test [1] (Homo sapiens, SJSA-1, 72 h) stood at 1.36 µM. This molecule gave an inhibition constant Ki in test [2] of 8.2 nM.

As for `Cc1ncc(Cl)cc1N1C(=O)c2n[nH]c(C(C)C)c2C12C(=O)Nc1cc(Cl)ccc12` (stereo not drawn) [Compound 84, 6-chloro-5′-(5-chloro-2-methylpyridin-3-yl)-3′-(propan-2-yl)-1,2,5′,6′-tetrahydro-2′H-spiro[indole-3,4′-pyrrolo[3,4-c]pyrazole]-2,6′-dione], in test [1] (Homo sapiens, SJSA-1, 72 h), the midpoint of inhibition, the IC50, lay at 46.1 µM. Besides, the affinity in test [2], expressed as Ki, was 152 nM.

Consider `Cc1ccc(Cl)cc1N1C(=O)C(O)=C(c2ccccc2)C12C(=O)Nc1cc(Cl)ccc12` (stereo not drawn) [Compound 47, 6-chloro-1′-(5-chloro-2-methylphenyl)-4′-hydroxy-3′-phenyl-1,1′,2,5′-tetrahydrospiro[indole-3,2′-pyrrole]-2,5′-dione], for which 44.5 µM corresponded to half-maximal inhibition in test [1] (Homo sapiens, SJSA-1, 72 h) (IC50). Also, the inhibition constant Ki in test [2] amounted to 29 nM.

Values taken from patent US20170129903A1, “COMPOUNDS COMPRISING 1,1a,2,5a-TETRAHYDROSPIRO[INDOLE-3,2a-PYRROLE]-2,5a-DIONE SYSTEM AS INHIBITORS P53-MDM2 PROTEIN-PROTEIN INTERACTION” (ADAMED SP. Z O.O., priority 2014, published 2017).
